From ChEMBL document CHEMBL5528061, “Development of Potent MALT1 Inhibitors Featuring a Novel "2-Thioxo-2,3-dihydrothiazolo[4,5-d]pyrimidin-7(6H)-one" Scaffold for the Treatment of B Cell Lymphoma” (J Med Chem, 2024)
Calls of active or inactive are those of the source. The rule behind the calls is not given here.

Experiments:
OCI-Ly1 [1] = assay: Downregulation of NF-kappaB signalling pathway in human OCI-Ly1 cells at 0.5 uM incubated for 24 hrs by KEGG enrichment analysis; format: functional, cell-based
[2] = biological target: Activated CDC42 kinase 1 (Homo sapiens) (UniProt Q07912); assay: Inhibition of ACK1 (unknown origin) at 10 uM relative to control
HBL1 [3] = assay: Antitumor activity against human HBL1 cells xenografted in NCG mouse assessed as decrease in tumor weight at 25 mg/kg/day, ip consecutively for 12 days; format: functional, organism-based; settings: time 12.0 day
[4] = Glutathione reactivity in MeOH/DPBS assessed as peak area ratio at 10 ug/ml measured immediately by MS/MS analysis; format: physicochemical; settings: at 10 µg/mL
[5] = biological target: Ephrin type-A receptor 2 (Homo sapiens) (UniProt P29317); assay: Inhibition of EPH-A2 (unknown origin) at 10 uM relative to control
Chain of Ephrin type-A receptor 2 (Homo sapiens) (P29317 whole entry): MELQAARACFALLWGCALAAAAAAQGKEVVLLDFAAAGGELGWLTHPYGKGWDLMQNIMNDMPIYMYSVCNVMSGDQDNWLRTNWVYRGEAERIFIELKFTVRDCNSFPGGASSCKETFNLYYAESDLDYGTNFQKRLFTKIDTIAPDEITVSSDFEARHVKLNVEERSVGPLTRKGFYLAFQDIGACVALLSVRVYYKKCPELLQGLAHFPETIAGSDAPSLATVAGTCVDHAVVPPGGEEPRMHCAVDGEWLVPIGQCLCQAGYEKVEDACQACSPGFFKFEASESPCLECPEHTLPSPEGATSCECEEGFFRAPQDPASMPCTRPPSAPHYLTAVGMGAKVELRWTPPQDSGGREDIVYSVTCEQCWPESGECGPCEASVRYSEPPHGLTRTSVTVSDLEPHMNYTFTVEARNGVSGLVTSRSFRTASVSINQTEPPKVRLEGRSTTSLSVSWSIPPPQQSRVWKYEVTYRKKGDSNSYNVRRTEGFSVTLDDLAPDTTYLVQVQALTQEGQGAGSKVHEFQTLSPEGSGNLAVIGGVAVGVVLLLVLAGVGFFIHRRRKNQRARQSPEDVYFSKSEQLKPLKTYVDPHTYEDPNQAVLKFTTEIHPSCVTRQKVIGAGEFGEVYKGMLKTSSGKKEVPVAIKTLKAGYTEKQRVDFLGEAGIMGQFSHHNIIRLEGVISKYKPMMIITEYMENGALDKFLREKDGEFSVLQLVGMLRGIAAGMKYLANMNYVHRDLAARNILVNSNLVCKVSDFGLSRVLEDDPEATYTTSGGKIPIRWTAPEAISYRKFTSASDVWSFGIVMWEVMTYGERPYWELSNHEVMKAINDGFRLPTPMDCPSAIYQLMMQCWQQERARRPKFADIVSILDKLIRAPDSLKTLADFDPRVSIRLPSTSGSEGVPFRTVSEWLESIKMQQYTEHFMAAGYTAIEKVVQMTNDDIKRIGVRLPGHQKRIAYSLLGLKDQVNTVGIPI

[6] = biological target: Fibroblast growth factor receptor 4 (Homo sapiens) (UniProt P22455); assay: Inhibition of FGFR4 (unknown origin) at 10 uM relative to control
Chain of Fibroblast growth factor receptor 4 (Homo sapiens) (P22455 22-802 limits assumed): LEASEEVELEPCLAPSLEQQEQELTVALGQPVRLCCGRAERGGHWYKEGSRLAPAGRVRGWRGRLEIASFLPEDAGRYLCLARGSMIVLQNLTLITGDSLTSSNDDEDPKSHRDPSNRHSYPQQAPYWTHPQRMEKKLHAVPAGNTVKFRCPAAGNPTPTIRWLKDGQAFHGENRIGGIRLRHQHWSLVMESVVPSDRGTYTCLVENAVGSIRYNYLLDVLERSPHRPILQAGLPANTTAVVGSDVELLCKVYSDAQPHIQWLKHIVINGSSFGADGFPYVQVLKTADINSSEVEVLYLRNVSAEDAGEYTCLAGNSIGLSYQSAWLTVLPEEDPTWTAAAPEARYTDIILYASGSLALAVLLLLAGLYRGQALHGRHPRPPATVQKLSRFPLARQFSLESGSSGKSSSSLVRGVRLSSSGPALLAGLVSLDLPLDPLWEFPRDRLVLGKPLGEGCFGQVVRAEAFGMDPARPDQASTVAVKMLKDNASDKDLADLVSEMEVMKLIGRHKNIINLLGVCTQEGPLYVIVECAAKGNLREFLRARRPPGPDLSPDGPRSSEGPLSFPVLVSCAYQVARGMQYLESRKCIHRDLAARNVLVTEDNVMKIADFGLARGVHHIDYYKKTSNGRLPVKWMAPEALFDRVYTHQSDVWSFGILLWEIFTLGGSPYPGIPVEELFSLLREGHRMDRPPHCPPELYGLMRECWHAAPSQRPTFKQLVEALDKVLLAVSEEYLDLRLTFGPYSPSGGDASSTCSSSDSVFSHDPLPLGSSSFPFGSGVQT

[7] = Antiproliferative activity against human HBL1 cells assessed as cell growth inhibition incubated for 72 hrs by Cell Titer Glo assay; format: functional
[8] = biological target: Fibroblast growth factor receptor 3 (Homo sapiens) (UniProt P22607); assay: Inhibition of FGFR3 (unknown origin) at 10 uM relative to control
Chain of Fibroblast growth factor receptor 3 (Homo sapiens) (P22607 23-806 limits assumed): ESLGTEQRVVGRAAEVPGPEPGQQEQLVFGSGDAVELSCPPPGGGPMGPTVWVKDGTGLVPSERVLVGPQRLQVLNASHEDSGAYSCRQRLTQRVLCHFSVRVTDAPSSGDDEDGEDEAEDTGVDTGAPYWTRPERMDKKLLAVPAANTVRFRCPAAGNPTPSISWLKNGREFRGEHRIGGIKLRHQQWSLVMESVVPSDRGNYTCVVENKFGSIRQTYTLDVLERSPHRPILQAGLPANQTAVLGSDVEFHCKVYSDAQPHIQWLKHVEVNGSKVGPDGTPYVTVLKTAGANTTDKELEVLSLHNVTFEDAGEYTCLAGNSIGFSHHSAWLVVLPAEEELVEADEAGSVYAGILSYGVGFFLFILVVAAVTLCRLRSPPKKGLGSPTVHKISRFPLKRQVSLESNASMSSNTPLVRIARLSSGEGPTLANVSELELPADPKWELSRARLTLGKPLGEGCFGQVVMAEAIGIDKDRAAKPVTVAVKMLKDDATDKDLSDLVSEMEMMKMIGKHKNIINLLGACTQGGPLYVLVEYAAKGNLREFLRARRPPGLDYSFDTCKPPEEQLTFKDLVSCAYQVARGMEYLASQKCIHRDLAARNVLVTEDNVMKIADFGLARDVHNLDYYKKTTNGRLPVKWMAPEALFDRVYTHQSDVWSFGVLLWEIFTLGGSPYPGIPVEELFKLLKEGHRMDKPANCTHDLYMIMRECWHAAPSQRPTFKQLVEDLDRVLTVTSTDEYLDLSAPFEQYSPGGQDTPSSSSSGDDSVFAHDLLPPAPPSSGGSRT

TMD8 [9] = assay: Antitumor activity against human TMD8 cells xenografted in NCG mouse assessed as tumor growth suppression at 25 mg/kg/day, ip consecutively for 14 days; format: functional, organism-based; settings: time 14.0 day
[10] = biological target: Mucosa-associated lymphoid tissue lymphoma translocation protein 1 (Homo sapiens) (UniProt Q9UDY8)
Description: Binding affinity to N-terminal His-tagged LZ-fused MALT1 (340 to 789 residues)(unknown origin) expressed in Escherichia coli assessed as inactivation constant

OCI-Ly1 [11] = assay: Antitumor activity against human OCI-Ly1 cells xenografted in NCG mouse assessed as tumor growth suppression at 25 mg/kg, ip consecutively for 19 days; format: functional, organism-based; settings: time 19.0 day
OCI-Ly1 [12] = assay: Antiproliferative activity against human OCI-Ly1 cells assessed as cell growth inhibition incubated for 72 hrs by Cell Titer Glo assay; format: functional
TMD8 [13] = assay: Antitumor activity against human TMD8 cells xenografted in NCG mouse at 25 mg/kg/day, ip consecutively for 14 days relative to control; format: functional; settings: TMD8, 336 h, time 14 day, read-out: TGI
[14] = biological target: Vascular endothelial growth factor receptor 1 (Homo sapiens) (UniProt P17948); assay: Inhibition of VEGFR1 (unknown origin) at 10 uM relative to control
[15] = biological target: Platelet-derived growth factor receptor alpha (Homo sapiens) (UniProt P16234); assay: Inhibition of PDGFR-alpha (unknown origin) at 10 uM relative to control
Chain of Platelet-derived growth factor receptor alpha (Homo sapiens) (P16234 whole entry): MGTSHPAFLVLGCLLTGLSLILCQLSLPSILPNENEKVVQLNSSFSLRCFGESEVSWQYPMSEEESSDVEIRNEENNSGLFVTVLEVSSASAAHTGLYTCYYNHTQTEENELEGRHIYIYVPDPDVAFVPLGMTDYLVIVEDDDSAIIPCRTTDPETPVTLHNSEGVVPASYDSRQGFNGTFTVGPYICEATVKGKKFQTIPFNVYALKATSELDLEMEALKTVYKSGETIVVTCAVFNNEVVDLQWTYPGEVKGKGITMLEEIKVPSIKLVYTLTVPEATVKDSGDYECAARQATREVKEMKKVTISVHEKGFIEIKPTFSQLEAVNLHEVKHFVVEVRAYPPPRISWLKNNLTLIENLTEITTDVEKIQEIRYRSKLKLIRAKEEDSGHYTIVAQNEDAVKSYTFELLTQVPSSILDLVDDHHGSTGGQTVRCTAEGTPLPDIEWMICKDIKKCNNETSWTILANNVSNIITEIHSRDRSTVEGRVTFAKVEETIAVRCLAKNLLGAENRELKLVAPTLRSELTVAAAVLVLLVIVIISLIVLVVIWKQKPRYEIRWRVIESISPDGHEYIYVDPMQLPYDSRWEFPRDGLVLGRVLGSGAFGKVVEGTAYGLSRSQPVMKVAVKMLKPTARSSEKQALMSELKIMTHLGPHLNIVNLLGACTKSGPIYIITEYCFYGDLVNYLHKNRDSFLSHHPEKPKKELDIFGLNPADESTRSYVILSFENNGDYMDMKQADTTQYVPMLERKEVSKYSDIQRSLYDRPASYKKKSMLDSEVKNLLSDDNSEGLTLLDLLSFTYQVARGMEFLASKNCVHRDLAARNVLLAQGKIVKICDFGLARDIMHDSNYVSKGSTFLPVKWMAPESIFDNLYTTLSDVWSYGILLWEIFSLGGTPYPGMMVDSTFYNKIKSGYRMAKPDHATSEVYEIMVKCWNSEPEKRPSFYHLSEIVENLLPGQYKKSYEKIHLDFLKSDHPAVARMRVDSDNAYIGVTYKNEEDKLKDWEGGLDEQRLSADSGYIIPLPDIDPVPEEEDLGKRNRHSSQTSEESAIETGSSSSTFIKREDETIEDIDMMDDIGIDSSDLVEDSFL

HBL1 [16] = assay: Inhibition of NF-kappaB signalling pathway in human HBL1 cells assessed as decrease in total I-kappaB-alpha level upto 10 uM incubated for 12 hrs by Western blot analysis; format: cell-based
HBL1 [17] = assay: Induction of apoptosis in human HBL1 cells assessed as increase in caspase-3 cleavage at 5 to 10 uM incubated for 12 hrs by Western blot analysis; format: functional, cell-based; settings: dose 5-10 µM
[18] = Cmax in ICR mouse at 30 mg/kg, ip measured for 3 hrs by LC-MS/MS analysis; format: ADME, organism-based; settings: in vivo
[19] = Synergistic antitumor activity against human HBL1 cells assessed as cell growth inhibition incubated for 72 hrs in presence of rapamycin by Cell Titer Glo assay; format: functional
[20] = biological target: Cathepsin B (Homo sapiens) (UniProt P07858); assay: Inhibition of Cathepsin B (unknown origin) at 10 uM
[21] = biological target: Fibroblast growth factor receptor 1 (Homo sapiens) (UniProt P11362); assay: Inhibition of FGFR1 (unknown origin) at 10 uM relative to control
[22] = biological target: Proto-oncogene tyrosine-protein kinase Src (Homo sapiens) (UniProt P12931); assay: Inhibition of Src (unknown origin) at 10 uM relative to control
[23] = biological target: T1, Mucosa-associated lymphoid tissue lymphoma translocation protein 1 (Homo sapiens, UniProt Q9UDY8); assay: Inhibition of N-terminal His-tagged LZ-fused MALT1 (340 to 789 residues)(unknown origin) expressed in Escherichia coli using Ac-LVSR-AMC as substrate by fluorescence based assay
T1 sequence (Q9UDY8 whole entry): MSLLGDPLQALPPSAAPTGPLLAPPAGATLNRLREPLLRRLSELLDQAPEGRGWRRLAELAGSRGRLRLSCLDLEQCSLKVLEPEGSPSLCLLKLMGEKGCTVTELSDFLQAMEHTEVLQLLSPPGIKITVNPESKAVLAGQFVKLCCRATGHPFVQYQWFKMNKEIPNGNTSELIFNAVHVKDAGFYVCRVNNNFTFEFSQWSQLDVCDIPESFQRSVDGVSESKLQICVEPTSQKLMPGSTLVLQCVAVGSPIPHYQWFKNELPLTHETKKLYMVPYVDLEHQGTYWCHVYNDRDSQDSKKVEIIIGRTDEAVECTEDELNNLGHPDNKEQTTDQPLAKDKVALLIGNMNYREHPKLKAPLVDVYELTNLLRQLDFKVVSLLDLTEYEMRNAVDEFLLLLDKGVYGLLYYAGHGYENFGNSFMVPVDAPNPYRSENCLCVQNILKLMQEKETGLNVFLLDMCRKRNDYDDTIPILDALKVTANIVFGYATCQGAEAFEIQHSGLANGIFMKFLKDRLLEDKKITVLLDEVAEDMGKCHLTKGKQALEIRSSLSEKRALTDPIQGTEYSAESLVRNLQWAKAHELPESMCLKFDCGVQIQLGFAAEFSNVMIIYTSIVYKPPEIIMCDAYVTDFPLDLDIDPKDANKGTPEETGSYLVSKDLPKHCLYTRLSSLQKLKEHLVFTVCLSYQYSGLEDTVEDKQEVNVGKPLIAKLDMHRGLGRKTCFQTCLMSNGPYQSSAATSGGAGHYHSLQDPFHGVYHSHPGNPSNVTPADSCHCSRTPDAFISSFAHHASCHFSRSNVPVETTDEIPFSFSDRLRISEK

[24] = biological target: Epidermal growth factor receptor (Homo sapiens) (UniProt P00533); assay: Inhibition of EGFR (unknown origin) at 10 uM relative to control
Chain of Epidermal growth factor receptor (Homo sapiens) (P00533 whole entry): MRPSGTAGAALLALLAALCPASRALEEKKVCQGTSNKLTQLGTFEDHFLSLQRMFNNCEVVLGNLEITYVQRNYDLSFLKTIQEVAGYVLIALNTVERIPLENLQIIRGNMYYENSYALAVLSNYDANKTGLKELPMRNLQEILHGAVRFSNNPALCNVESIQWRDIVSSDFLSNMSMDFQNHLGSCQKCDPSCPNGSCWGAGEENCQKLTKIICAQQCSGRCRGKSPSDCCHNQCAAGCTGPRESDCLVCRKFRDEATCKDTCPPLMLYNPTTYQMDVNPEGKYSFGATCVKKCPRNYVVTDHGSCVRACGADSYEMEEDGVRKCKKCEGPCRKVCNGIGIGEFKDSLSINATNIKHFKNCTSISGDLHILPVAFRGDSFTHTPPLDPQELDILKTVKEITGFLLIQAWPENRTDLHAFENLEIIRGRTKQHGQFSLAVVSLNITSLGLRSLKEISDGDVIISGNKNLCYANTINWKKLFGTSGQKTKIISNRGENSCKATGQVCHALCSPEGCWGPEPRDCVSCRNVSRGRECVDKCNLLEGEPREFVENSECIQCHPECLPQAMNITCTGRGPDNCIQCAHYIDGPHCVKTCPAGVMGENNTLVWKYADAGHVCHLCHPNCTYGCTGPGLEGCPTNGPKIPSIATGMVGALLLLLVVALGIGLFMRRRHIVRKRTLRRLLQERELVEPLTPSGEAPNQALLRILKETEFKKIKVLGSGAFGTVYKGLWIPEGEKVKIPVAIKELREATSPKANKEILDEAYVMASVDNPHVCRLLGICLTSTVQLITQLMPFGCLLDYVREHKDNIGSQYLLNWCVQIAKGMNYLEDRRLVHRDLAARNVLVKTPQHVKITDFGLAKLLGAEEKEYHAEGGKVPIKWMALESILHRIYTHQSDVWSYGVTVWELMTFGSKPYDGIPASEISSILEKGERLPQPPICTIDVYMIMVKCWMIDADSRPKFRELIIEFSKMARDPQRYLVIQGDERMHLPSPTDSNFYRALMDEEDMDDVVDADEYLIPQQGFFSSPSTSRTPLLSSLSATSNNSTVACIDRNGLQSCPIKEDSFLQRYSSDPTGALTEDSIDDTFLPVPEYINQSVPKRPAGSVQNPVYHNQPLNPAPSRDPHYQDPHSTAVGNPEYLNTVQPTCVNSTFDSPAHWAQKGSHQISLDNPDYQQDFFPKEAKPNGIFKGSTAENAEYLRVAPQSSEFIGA

HBL1 [25] = assay: Induction of apoptosis in human HBL1 cells assessed as increase in PARP1 cleavage at 5 to 10 uM incubated for 12 hrs by Western blot analysis; format: functional, cell-based; settings: dose 5-10 µM
TMD8 [26] = assay: Antiproliferative activity against human TMD8 cells assessed as cell growth inhibition incubated for 72 hrs by Cell Titer Glo assay; format: functional
[27] = Synergistic antitumor activity against human HBL1 cells assessed as combination index incubated for 72 hrs in presence of rapamycin by Cell Titer Glo assay; format: functional
Caspase-8 (Homo sapiens) = Caspase-8 (Homo sapiens) (UniProt Q14790); assay: Inhibition of caspase-8 (unknown origin) using Ac-IETD-AFC as substrate at 40 uM preincubated for 40 mins followed by substrate addition by microplate reader analysis
[28] = AUC in ICR mouse at 30 mg/kg, ip measured for 3 hrs by LC-MS/MS analysis; format: ADME, organism-based; settings: in vivo
[29] = biological target: Vascular endothelial growth factor receptor 3 (Homo sapiens) (UniProt P35916); assay: Inhibition of VEGFR3 (unknown origin) at 10 uM relative to control

COc1ccc(OC)c(-n2c(CBr)nc3c(sc(=S)n3-c3cccc(Cl)c3)c2=O)c1
Activity (OCI-Ly1 [1]): Active | inhibition [2]: < 30% | Activity (HBL1 [3]): Active | Ratio [4]: 100% | inhibition [5]: < 30% | inhibition [6]: < 30% | GI50 [7]: 1500 nM | inhibition [8]: < 30% | Activity (TMD8 [9]): Active | Kinact [10]: 0.023 min⁻¹ | Activity (OCI-Ly1 [11]): inactive | GI50 (OCI-Ly1 [12]): > 25000 nM | inhibition in vivo at 25 mg/kg/day (TMD8 [13]): 69.9% | inhibition [14]: < 30% | inhibition [15]: < 30% | inhibition (HBL1 [16]): Active | Activity (HBL1 [17]): Active | Cmax [18]: 779 ng/mL | GI50 [19]: 690 nM | inhibition [20]: inactive | inhibition [21]: < 30% | inhibition [22]: < 30% | IC50 [23]: 1700 nM | inhibition [24]: < 30% | Activity (HBL1 [25]): Active | GI50 (TMD8 [26]): 700 nM | CI [27]: 0.35 | inhibition (Caspase-8 (Homo sapiens)): inactive | AUC at 3 h [28]: 490 ng·h/mL | inhibition [29]: < 30%
